Assay results from ChEMBL document CHEMBL1201862, “PubChem BioAssay data set” (2004).
The source made the active and inactive calls. Rule as the data show it, for most assays here: actives have a measured EC50 and inactives only a lower limit.

Legend:
[1] = Trypanosoma cruzi growth suppression in host cells – NIH3T3 host cells, beta-gal luminescence, confirmation (AID 2044); type: functional, cell-based;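 also: intracellular parasites grown in NIH/3T3 mouse fibroblasts as host cells; luminescent beta-galactosidase reporter signal from transgenic T. cruzi replicating inside host cells; inhibitors lower the luminescence signal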
[2] = NIH3T3 cell viability loss – ATP luminescence, mouse fibroblasts, counter-screen, dose response (AID 2010); type: functional, cell-based;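 also: cells exposed to compound for about 90 hours before reading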
[3] = tested on: Streptococcus sp. 'group A'; experiment: Streptococcus pyogenes SK(-)GAS viability under kanamycin – luminescence, BacTiterGlo, confirmation, counter-screen for streptokinase expression inhibitor project, dose response (AID 1900); type: functional, organism-based
Streptococcus = experiment: GAS UMAA2166 growth inhibition – luminescence, BacTiterGlo, counter-screen for streptokinase expression inhibitor project, dose response (AID 1915); type: functional, organism-based;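 also: potency for reduction of bacterial viability or growth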
[4] = target: T1, Corticotropin-releasing factor receptor 2/Corticotropin-releasing factor-binding protein (Homo sapiens, UniProt P24387+Q13324); experiment: activators of CRF receptor 2 with binding protein – uHTS hits, confirmation (AID 602473); type: functional; details: read-out: EC50_Mean
T1 sequence (Q13324 whole entry): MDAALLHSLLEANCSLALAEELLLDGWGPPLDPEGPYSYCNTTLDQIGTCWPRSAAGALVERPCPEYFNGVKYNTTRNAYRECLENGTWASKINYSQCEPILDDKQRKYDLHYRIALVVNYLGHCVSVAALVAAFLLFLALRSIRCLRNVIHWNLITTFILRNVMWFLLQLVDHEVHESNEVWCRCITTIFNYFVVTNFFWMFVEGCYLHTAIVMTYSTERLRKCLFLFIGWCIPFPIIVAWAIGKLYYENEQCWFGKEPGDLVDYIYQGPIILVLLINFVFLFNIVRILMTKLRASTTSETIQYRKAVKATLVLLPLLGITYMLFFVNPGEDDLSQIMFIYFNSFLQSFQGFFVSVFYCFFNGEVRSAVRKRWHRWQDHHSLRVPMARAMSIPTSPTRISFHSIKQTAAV
T1 sequence (P24387 whole entry): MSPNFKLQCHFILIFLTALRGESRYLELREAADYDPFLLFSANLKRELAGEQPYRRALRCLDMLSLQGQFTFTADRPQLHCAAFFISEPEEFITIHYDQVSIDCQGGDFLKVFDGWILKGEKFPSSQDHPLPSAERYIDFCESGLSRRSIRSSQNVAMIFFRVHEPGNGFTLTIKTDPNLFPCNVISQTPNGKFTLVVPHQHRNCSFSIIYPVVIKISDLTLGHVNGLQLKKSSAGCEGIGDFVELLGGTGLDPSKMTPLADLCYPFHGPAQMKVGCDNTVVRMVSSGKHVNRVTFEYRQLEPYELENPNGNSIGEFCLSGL

Streptokinase A = target: T2, Streptokinase A (Streptococcus pyogenes serotype M1, UniProt P10520); experiment: viability-normalized secreted streptokinase activity reduction – plasminogen activation absorbance, OD405, dose response (AID 1914); type: functional, Streptococcus pyogenes M1 GAS;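 also: secreted streptokinase activity via plasminogen activation per viability signal from cell pellet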
T2 sequence (P10520 whole entry): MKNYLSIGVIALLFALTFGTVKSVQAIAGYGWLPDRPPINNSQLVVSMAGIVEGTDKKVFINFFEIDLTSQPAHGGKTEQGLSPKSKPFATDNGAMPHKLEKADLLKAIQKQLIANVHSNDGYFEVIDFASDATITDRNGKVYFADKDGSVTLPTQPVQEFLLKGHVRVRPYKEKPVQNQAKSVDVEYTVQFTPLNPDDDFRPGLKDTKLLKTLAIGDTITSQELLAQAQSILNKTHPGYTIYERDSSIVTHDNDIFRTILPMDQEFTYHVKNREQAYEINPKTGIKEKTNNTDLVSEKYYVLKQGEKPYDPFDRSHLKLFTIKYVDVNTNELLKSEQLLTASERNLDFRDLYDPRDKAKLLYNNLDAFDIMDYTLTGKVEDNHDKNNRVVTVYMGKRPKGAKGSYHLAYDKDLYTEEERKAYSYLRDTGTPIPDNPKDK

Cytochrome P450 1A2 = target: T3, Cytochrome P450 1A2 (Homo sapiens, UniProt P05177);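 also: PubChem cytochrome P450 panel assay, CYP1A2 panel member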
T3 sequence (P05177 whole entry): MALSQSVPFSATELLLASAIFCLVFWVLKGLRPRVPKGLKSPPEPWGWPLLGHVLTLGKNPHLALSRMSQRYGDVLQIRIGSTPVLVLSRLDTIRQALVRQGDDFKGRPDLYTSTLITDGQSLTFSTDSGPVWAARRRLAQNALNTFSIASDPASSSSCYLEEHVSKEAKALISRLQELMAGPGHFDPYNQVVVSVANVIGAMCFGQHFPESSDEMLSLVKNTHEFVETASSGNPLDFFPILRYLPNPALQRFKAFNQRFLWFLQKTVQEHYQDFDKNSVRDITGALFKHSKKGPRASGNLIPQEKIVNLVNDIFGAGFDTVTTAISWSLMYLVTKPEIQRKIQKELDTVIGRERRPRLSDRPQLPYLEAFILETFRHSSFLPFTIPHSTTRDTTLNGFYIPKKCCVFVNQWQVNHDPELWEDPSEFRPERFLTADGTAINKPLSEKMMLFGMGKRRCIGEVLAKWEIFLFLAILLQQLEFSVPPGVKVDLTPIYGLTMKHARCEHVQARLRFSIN

SMILES: COc1ccccc1C(=O)NC(=S)Nc1ccc(N2CCCC2)cc1
- EC50 [1]: 1.97 µM (active)
- EC50 [2]: > 60 µM (not active)

SMILES: CC1(C)CC(=O)c2c(n(S(=O)(=O)c3ccccc3)c3ccc(NS(=O)(=O)c4ccccc4)cc23)C1
- EC50 [1]: 1.03 µM (active)
- EC50 [2]: 10.6 µM (active)

SMILES: CN1CCN(c2ncnc3sc(-c4ccccc4)cc23)CC1
- EC50 [1]: 0.314 µM (active)
- EC50 [2]: > 60 µM (not active)

SMILES: COc1ccccc1C(c1nnnn1Cc1ccco1)N1CCN(c2cccc(C)c2C)CC1 (stereo not given)
- EC50 [1]: 1.84 µM (active)
- EC50 [2]: > 60 µM (not active)

SMILES: CCOc1ccc(NS(=O)(=O)c2cc(NC(=O)c3ccc(C)cc3)ccc2Cl)cc1
- EC50 [3]: 12.5 µM (active)
- EC50 (Streptococcus): 6.62 µM (active)

SMILES: CCOC(=O)N1CCN(CC(O)c2ccc3cc[nH]c3c2)CC1 (stereo not given)
- EC50 [4]: > 53 µM (inactive)

SMILES: COC(=O)[C@@]12CCCN1[C@H](c1ccc(-c3cccc(Cl)c3)c(OC)c1)[C@H]1C(=O)N(C)C(=O)[C@H]12
- EC50 (Streptokinase A): > 150 µM (not active)
- EC50 [3]: 105 µM (active)
- EC50 (Streptococcus): > 150 µM (not active)

SMILES: Cc1ccc2cc(/C=N/NC(=O)[C@H]3C[C@@H]3c3ccccc3)c(Cl)nc2c1
- EC50 [1]: 2.26 µM (active)
- EC50 [2]: > 60 µM (not active)

SMILES: COc1ccc(CN(C(=O)c2ccc(-c3ccccc3)[nH]2)C(C(=O)NC(C)(C)C)c2ccncc2)cc1 (stereo not given)
- EC50 [1]: 0.706 µM (active)
- EC50 [2]: > 60 µM (not active)

SMILES: O=[N+]([O-])c1cc(-c2n[nH]c(-c3ccccc3)n2)cc([N+](=O)[O-])c1
- EC50 [1]: 0.475 µM (active)
- EC50 [2]: > 60 µM (not active)

SMILES: CN1C(=O)C(=Cc2ccc(N3CCOCC3)o2)C(=O)N(C)C1=S
- EC50 [4]: 7.57 µM (active)

SMILES: Cc1cc(C)nc(N=C(NCCc2c[nH]c3ccccc23)NC(=O)Nc2ccc(Cl)c(Cl)c2)n1
- EC50 [1]: 1.62 µM (active)
- EC50 [2]: > 60 µM (not active)

SMILES: CCOC(=O)c1ccc(OC(=O)CCCCCNC(=N)N)cc1 [GABEXATE]
- AC50 (Cytochrome P450 1A2): 15.8 µM (inconclusive)

SMILES: Cc1cccc(NC(=O)C(=O)NNC(=O)c2ccc(C(C)(C)C)cc2)c1
- EC50 (Streptokinase A): > 150 µM (not active)
- EC50 [3]: 9.34 µM (active)
- EC50 (Streptococcus): 25.4 µM (active)

SMILES: CCOC(=O)N1CCN(c2c(O)nc3ccc(Cl)cc3c2-c2ccccc2)CC1
- AC50 (Cytochrome P450 1A2): 0.158 µM (inconclusive)

SMILES: Cc1ccc(NC(S)=NC2CCSc3ccccc32)cc1C (stereo not given)
- EC50 [3]: 20.6 µM (active)
- EC50 (Streptococcus): > 150 µM (not active)

SMILES: Cc1ccc(NC(=S)NC2CCSc3ccccc32)cc1C (stereo not given)
- EC50 (Streptokinase A): 24.3 µM (active)

SMILES: Clc1ccc(C2C3=C(Nc4ncnn42)c2ccccc2CC3)cc1 (stereo not given)
- EC50 (Streptokinase A): > 150 µM (not active)
- EC50 [3]: 7.5 µM (active)
- EC50 (Streptococcus): 43.2 µM (active)

SMILES: CN1CCN(c2ncc3nc(-c4cn(C)c5ccccc45)c(=O)n(-c4ccccc4)c3n2)CC1
- AC50 (Cytochrome P450 1A2): 15.8 µM (inconclusive)

SMILES: N#Cc1ccccc1Cn1cc(/C=N/Nc2ccc([N+](=O)[O-])cn2)c2ccccc21
- EC50 [1]: 1.94 µM (active)
- EC50 [2]: > 60 µM (inconclusive)

SMILES: COc1ccccc1CNc1ncnc2ccc(-c3ccccc3CN(C)C)cc12
- AC50 (Cytochrome P450 1A2): 15.8 µM (inconclusive)

SMILES: CCCCn1c(=N)c(S(=O)(=O)c2ccc(Br)cc2)cc2c(=O)n3cccc(C)c3nc21
- EC50 [4]: > 53 µM (inactive)

SMILES: Cc1ccc(C(=O)N2CCOCC2)cc1S(=O)(=O)N1CCOCC1
- EC50 (Streptokinase A): > 150 µM (not active)
- EC50 [3]: > 150 µM (not active)
- EC50 (Streptococcus): > 150 µM (not active)

SMILES: Cc1ccccc1-n1nc(C(=O)c2cccs2)cc(-c2nc3ccccc3[nH]2)c1=N
- EC50 [3]: 2.99 µM (active)
- EC50 (Streptococcus): 3.73 µM (active)

SMILES: COc1ccc(/C=C/c2ccncc2)cc1
- EC50 [1]: 0.529 µM (active)
- EC50 [2]: > 60 µM (not active)

SMILES: N#Cc1c(NC(=S)NC(=O)c2ccccc2)sc2c1CCN(CCc1ccccc1)C2
- EC50 [1]: 0.717 µM (active)
- EC50 [2]: > 60 µM (not active)

SMILES: CCCOc1ccc(CNCCCOCC)cc1OC
- EC50 [1]: 0.344 µM (active)
- EC50 [2]: > 60 µM (inconclusive)

SMILES: CC1CCCC(C)N1S(=O)(=O)c1ccc(S(=O)(=O)NCCc2ccncc2)cc1 (stereo not given)
- EC50 [1]: 2.83 µM (active)
- EC50 [2]: > 60 µM (not active)

SMILES: O=C(N[C@@H](c1ccccc1)[C@@H]1C[C@H]1C(=O)O)OCc1ccccc1
- AC50 (Cytochrome P450 1A2): 20 µM (inconclusive)

SMILES: CNC(=O)[C@H](C)[C@H]1C[C@]1(C)[C@H](NC(=O)OCc1ccccc1)c1ccccc1
- AC50 (Cytochrome P450 1A2): 20 µM (inconclusive)

SMILES: COC(=O)C1=CN(Cc2ccc(OC)c(OC)c2)C=C(C(=O)OC)C1c1cccs1
- EC50 [1]: 0.707 µM (active)

SMILES: Cn1c(Oc2ccccc2NCc2cc(Br)ccc2O)cc(=O)n(C)c1=O
- EC50 (Streptokinase A): > 150 µM (not active)
- EC50 [3]: 6.42 µM (active)
- EC50 (Streptococcus): 16.1 µM (active)

SMILES: COc1ccc(NC(=O)CSc2ccc3nnc(-c4ccccn4)n3n2)c(OC)c1
- EC50 (Streptokinase A): > 150 µM (not active)
- EC50 [3]: > 150 µM (not active)
- EC50 (Streptococcus): > 150 µM (not active)

SMILES: CCc1ccc(CN(Cc2cccnc2)C(=O)/C=C/c2ccc(OC)cc2)cc1
- EC50 [1]: 0.375 µM (active)
- EC50 [2]: > 30 µM (not active)

SMILES: CCC(N=C(S)NC1CCCCC1)c1ccc(C(C)C)cc1 (stereo not given)
- EC50 [3]: 10.7 µM (active)
- EC50 (Streptococcus): 82 µM (active)

SMILES: CCOc1cccc2sc(N(CCCN(C)C)C(=O)c3ccc(S(=O)(=O)N(C)c4ccccc4)cc3)nc12
- EC50 [1]: 1.52 µM (active)
- EC50 [2]: > 60 µM (not active)

SMILES: Cc1c(-n2cc(C(=O)c3cc(F)ccc3O)cc(C#N)c2=O)c(=O)n(-c2ccccc2)n1C
- EC50 [4]: > 53 µM (inactive)

SMILES: O=C1c2cccnc2C(=O)N1Cc1ccc(F)cc1
- AC50 (Cytochrome P450 1A2): 17.8 µM (inconclusive)

SMILES: CCOc1ccc(C)cc1S(=O)(=O)NC1CCCCCC1
- EC50 (Streptokinase A): > 150 µM (not active)
- EC50 [3]: > 150 µM (not active)
- EC50 (Streptococcus): > 150 µM (not active)

SMILES: COc1ccc(C(=O)Nc2c3c(nn2-c2ccc([N+](=O)[O-])cc2)CS(=O)(=O)C3)cc1
- EC50 (Streptokinase A): > 150 µM (not active)
- EC50 [3]: 16.1 µM (active)
- EC50 (Streptococcus): > 150 µM (not active)

SMILES: C=CCn1c(Oc2ccc(C(=O)OC)cc2)nc2c1c(=O)n(C)c(=O)n2C
- EC50 (Streptokinase A): > 150 µM (not active)
- EC50 [3]: 12.4 µM (active)
- EC50 (Streptococcus): > 150 µM (not active)

SMILES: COc1ccc(NS(=O)(=O)c2ccc(C(=O)N3CCC(C)CC3)cc2)cc1
- EC50 [4]: 9.87 µM (active)

SMILES: O=c1[nH]c(=O)c2cc([N+](=O)[O-])cc([N+](=O)[O-])c2[nH]1
- EC50 [1]: 1.04 µM (active)
- EC50 [2]: > 30 µM (not active)

SMILES: O=C(O)c1ccc(N2C=[N+]3C(=Nc4ccccc43)C2)cc1
- AC50 (Cytochrome P450 1A2): 5.01 µM (inconclusive)

SMILES: COc1cc(CNCCc2ccccc2F)ccc1OCC(=O)N1CCCCC1
- EC50 [1]: 0.393 µM (active)
- EC50 [2]: > 30 µM (not active)

SMILES: CC1CC(C)CN(C2CCCCC2NS(=O)(=O)c2ccc(Cl)cc2)C1 (stereo not given)
- EC50 [4]: 6.53 µM (active)
